Tests used:
[1] = Clearance in Sprague-Dawley rat at 50 mg/kg, iv pretreated with Escherichia coli lipopolysaccharide (Rvb=32.4+/- 5.25 ml/min/kg); assay type: ADME, organism-based; parameters: dose 50 mg/kg, route intravenous; conditions: in vivo
[2] = Renal clearance in Sprague-Dawley rat at 50 mg/kg, po pretreated with Escherichia coli lipopolysaccharide (Rvb=4.21 +/- 1.81 ml/min/kg); assay type: ADME, organism-based, Kidney; parameters: dose 50 mg/kg, route oral; conditions: in vivo, read-out: CL_renal
[3] = Drug absorption in Sprague-Dawley rat gastrointestinal tract at 50 mg/kg, iv after 24 hrs pretreated with Escherichia coli lipopolysaccharide (Rvb=8.53 +/- 4.64 %); assay type: ADME, organism-based; parameters: dose 50 mg/kg, route intravenous
[4] = Oral bioavailability in Sprague-Dawley rat at 50 mg/kg, po pretreated with Escherichia coli lipopolysaccharide (Rvb=38.8%); assay type: ADME, organism-based; conditions: in vivo
[5] = Tmax in Sprague-Dawley rat at 50 mg/kg, po pretreated with Escherichia coli lipopolysaccharide (Rvb=180 min); assay type: ADME, organism-based; parameters: dose 50 mg/kg, route oral; conditions: in vivo
[6] = Renal clearance in Sprague-Dawley rat at 50 mg/kg, iv pretreated with Escherichia coli lipopolysaccharide (Rvb=5.29 +/- 0.643 ml/min/kg); assay type: ADME, organism-based, Kidney; parameters: dose 50 mg/kg, route intravenous; conditions: in vivo, read-out: CL_renal
[7] = Drug excretion in Sprague-Dawley rat urine assessed as unchanged drug at 50 mg/kg, iv after 24 hrs pretreated with Escherichia coli lipopolysaccharide (Rvb=16.5 +/- 2.32 %); assay type: ADME, organism-based; parameters: dose 50 mg/kg, route intravenous; conditions: read-out: Drug uptake
[8] = Half life in Sprague-Dawley rat at 50 mg/kg, po pretreated with Escherichia coli lipopolysaccharide (Rvb=123 +/- 63.4 min); assay type: ADME, organism-based; parameters: dose 50 mg/kg, route oral; conditions: in vivo
[9] = Apparent volume of distribution in Sprague-Dawley rat at 50 mg/kg, iv pretreated with Escherichia coli lipopolysaccharide (Rvb=4,950 +/- 1160 ml/kg); assay type: ADME, organism-based; parameters: dose 50 mg/kg, route intravenous; conditions: in vivo, read-out: Vdss(app)
[10] = Drug excretion in Sprague-Dawley rat urine assessed as unchanged drug at 50 mg/kg, po after 24 hrs pretreated with Escherichia coli lipopolysaccharide (Rvb=4.78 +/- 3.28 %); assay type: ADME, organism-based; parameters: dose 50 mg/kg, route oral; conditions: read-out: Drug uptake
[11] = Half life in Sprague-Dawley rat at 50 mg/kg, iv pretreated with Escherichia coli lipopolysaccharide (Rvb=159 +/- 56.3 min); assay type: ADME, organism-based; parameters: dose 50 mg/kg, route intravenous; conditions: in vivo
[12] = Drug absorption in Sprague-Dawley rat gastrointestinal tract at 50 mg/kg, po after 24 hrs pretreated with Escherichia coli lipopolysaccharide (Rvb=5.73 +/- 4.57 %); assay type: ADME, organism-based; parameters: dose 50 mg/kg, route oral
[13] = tested on: Rattus norvegicus; test: Nonrenal clearance in Sprague-Dawley rat at 50 mg/kg, iv pretreated with Escherichia coli lipopolysaccharide (Rvb=27.2 +/- 5.02 ml/min/kg); assay type: ADME, organism-based; parameters: dose 50 mg/kg, route intravenous; conditions: in vivo
[14] = Cmax in Sprague-Dawley rat at 50 mg/kg, po pretreated with Escherichia coli lipopolysaccharide (Rvb=2.35 +/- 1.19 ug/ml); assay type: ADME, organism-based; parameters: dose 50 mg/kg, route oral; conditions: in vivo
[15] = tested on: Rattus norvegicus; test: AUC in Sprague-Dawley rat at 50 mg/kg, iv pretreated with Escherichia coli lipopolysaccharide (Rvb=1570 +/- 240 ug/min/ml); assay type: ADME, organism-based, Plasma; parameters: dose 50 mg/kg, route intravenous; conditions: in vivo
[16] = tested on: Rattus norvegicus; test: AUC in Sprague-Dawley rat at 50 mg/kg, po pretreated with Escherichia coli lipopolysaccharide (Rvb=609 +/- 323 ug/min/ml); assay type: ADME, organism-based, Plasma; parameters: dose 50 mg/kg, route oral; conditions: in vivo

Compound: CC[C@H]1OC(=O)[C@H](C)C(=O)[C@H](C)[C@@H](O[C@@H]2O[C@H](C)C[C@H](N(C)C)[C@H]2O)[C@](C)(OC)C[C@@H](C)C(=O)[C@H](C)[C@H]2N(CCCCn3cnc(-c4cccnc4)c3)C(=O)O[C@]12C [TELITHROMYCIN]
- clearance [1]: 19.4 mL/min/kg
- CL renal [2]: 3.17 mL/min/kg
- percent of dose recovered from gastrointestinal tract at 24 h [3]: 5.31%
- bioavailability [4]: 50.7%
- Tmax [5]: 3 h
- CL renal [6]: 4.27 mL/min/kg
- dose excreted at 24 h [7]: 23.8%
- half-life [8]: 2.33 h
- Vd [9]: 3.28 L/kg
- dose excreted at 24 h [10]: 9.54%
- half-life [11]: 2.55 h
- percent of dose recovered from gastrointestinal tract at 24 h [12]: 9.63%
- CL [13]: 15.1 mL/min/kg
- Cmax [14]: 5030 ng/mL
- AUC [15]: 2880 µg/min/mL
- AUC [16]: 1460 µg/min/mL
